{"source": "patent US8785630B2", "about": "“Insecticidal triazines and pyrimidines” (Vestaron Corporation, priority 2011, dated 2014)", "data": [{"system": "beet armyworm (Spodoptera exigua)", "assay": "Insecticidal test for beet armyworm, treated diet surface", "format": "in vivo", "settings": "100 μg/cm^2 on diet surface, first instar larvae, 32 insects per treatment, observations 24, 48 and 96 hours", "experimental": "The compounds identified in Table 8 were prepared according to the previous methods and were tested against beet armyworm and corn earworm as follows:\nInsecticidal Test for Beet Armyworm (Spodoptera exigua).\nTo prepare the test solution, the test compound was Formulated at 3499 ppm in solution as 5 mg compound/1.429 mL of 9 parts acetone: 1 part deionized H2O and vortexed to homogenize. 50 μL of the 3499 ppm (equivalent to 100 μg/cm^2 dose on diet surface area) test solution was pipetted upon the surface of 1 mL of solidified cool Southland Products Incorporated Beet Armyworm Diet (201 Stuart Island Road Lake Village, Ark. 71653) using an Eppendorf Repeater Plus with a 1 mL pipette tip. All pipetting of treatments was done in a Labconco Hood. Thirty minutes were allowed for the acetone to evaporate leaving a dose of 100 μg/cm^2 on the surface of the artificial diet. Two 24 hour old first instar Beet Armyworm (Spodoptera Exigua) larvae were placed in each well of the 128 well Bio-BA 128 Bioassay trays (CD International, Pitman, N.J., 08071, USA) using a #0 fine camel hair paint brush. Bioassay trays were sectioned into treatment groups of 8 with 16 replicates per treatment group (32 insects per treatment). Trays containing the treated diet and larvae were covered with a Bio-CV-16 cover (CD International, Pitman, N.J., 08071, USA) and then placed on a rack under florescent lights at 27° C., 20% relative humidity (RH) in the room, and 16 hr light: 8 hr dark for 96 hours. Observations were made 24, 48 and 96 hours after treatment and infestation. The number of insects dead were counted out of the 32 insects total per treatment and the results are given in a table as a percent mortality at a dose of 100 μg/cm^2. When finished, the tray was moved to the −5° C. freezer and left for 24 hr to insure mortality of the remaining S. exigua. After 24 hours, dispose of entire tray into waste bin.\nKeys to the table: Mortality refers to activity against beet army worm (Spodoptera exigua) as defined above at the concentration of 100 μg/cm^2 (A=76-100% mortality, B=51-75% mortality, C=26-50% mortality and D=0-25% mortality).", "units": {"mortality at 100 µg/cm2": "%"}, "values": [{"smiles": "FC(F)(F)Oc1ccc(C=NNc2nc(Nc3ccc(Cl)cc3)nc(-c3ccc(OC(F)(F)F)cc3)n2)cc1", "note": "[Example 3, N-(4-chlorophenyl)-4-(2-(4-(trifluoromethoxy)benzylidene)hydrazinyl)-6-(4-(trifluoromethoxy)phenyl)-1,3,5-triazin-2-amine]", "mortality at 100 µg/cm2": "26 to 50"}, {"smiles": "FC(F)(F)Oc1ccc(C=NNc2nc(Nc3ccc(Cl)cc3)nc(-c3ccccc3)n2)cc1", "note": "[Example 2, N-(4-chlorophenyl)-4-phenyl-6-(2-(4-(trifluoromethoxy)benzylidene)hydrazinyl)-1,3,5-triazin-2-amine]", "mortality at 100 µg/cm2": "76 to 100"}, {"smiles": "Fc1ccc(Nc2nc(NN=Cc3ccc(OC(F)(F)F)cc3)nc(-c3c(F)cccc3Cl)n2)cc1C(F)(F)F", "note": "[Example 35, 4-(2-chloro-6-fluorophenyl)-N-(4-fluoro-3-(trifluoromethyl)phenyl)-6-(2-(4-(trifluoromethoxy)benzylidene)hydrazinyl)-1,3,5-triazin-2-amine]", "mortality at 100 µg/cm2": "76 to 100"}, {"smiles": "N#Cc1ccc(C=NNc2nc(Nc3ccc(Cl)cc3)nc(-c3c(F)cccc3Cl)n2)cc1", "note": "[Example 18]", "mortality at 100 µg/cm2": "76 to 100"}, {"smiles": "Fc1cccc(Cl)c1-c1nc(NN=Cc2ccc(OC(F)(F)F)cc2)nc(Nc2ccc(Cl)cc2)n1", "note": "[Example 4]", "mortality at 100 µg/cm2": "76 to 100"}, {"smiles": "Fc1ccc(Nc2nc(NN=Cc3ccc(OC(F)(F)F)cc3)nc(-c3c(F)cccc3Cl)n2)cc1Cl", "note": "[Example 34, N-(3-chloro-4-fluorophenyl)-4-(2-chloro-6-fluorophenyl)-6-(2-(4-(trifluoromethoxy)benzylidene)hydrazinyl)-1,3,5-triazin-2-amine]", "mortality at 100 µg/cm2": "76 to 100"}, {"smiles": "Fc1cccc(Cl)c1-c1nc(NN=CCc2ccccc2)nc(Nc2ccc(Cl)cc2)n1", "note": "[Example 20, 4-(2-chloro-6-fluorophenyl)-N-(4-chlorophenyl)-6-(2-(2-phenylethylidene)hydrazinyl)-1,3,5-triazin-2-amine]", "mortality at 100 µg/cm2": "76 to 100"}, {"smiles": "Fc1cccc(Cl)c1-c1nc(NN=Cc2ccc(OC(F)(F)C(F)Cl)cc2)nc(Nc2ccc(Cl)nc2)n1", "note": "(centres unmarked) [Example 36, 4-(2-(4-(2-chloro-1,1,2-trifluoroethoxy)benzylidene)hydrazinyl)-6-(2-chloro-6-fluorophenyl)-N-(6-chloropyridin-3-yl)-1,3,5-triazin-2-amine]", "mortality at 100 µg/cm2": "76 to 100"}, {"smiles": "Fc1cccc(Cl)c1C=NNc1nc(Nc2ccc(Cl)cc2)nc(-c2ccc(OC(F)(F)F)cc2)n1", "note": "[Example 48, 4-(2-(2-chloro-6-fluorobenzylidene)hydrazinyl)-N-(4-chlorophenyl)-6-(4-(trifluoromethoxy)phenyl)-1,3,5-triazin-2-amine]", "mortality at 100 µg/cm2": "76 to 100"}, {"smiles": "Fc1cccc(Cl)c1-c1cc(Nc2ccc(Cl)nc2)nc(NN=Cc2ccc(OC(F)(F)F)cc2)n1", "note": "[Example 59, 6-(2-chloro-6-fluorophenyl)-N-(6-chloropyridin-3-yl)-2-(2-(4-(trifluoromethoxy)benzylidene)hydrazinyl)pyrimidin-4-amine]", "mortality at 100 µg/cm2": "76 to 100"}, {"smiles": "Fc1cccc(F)c1-c1nc(NCc2ccc(Cl)nc2)nc(NN=Cc2ccc(OC(F)(F)F)cc2)n1", "note": "[Example 8, N-((6-chloropyridin-3-yl)methyl)-4-(2,6-difluorophenyl)-6-(2-(4-(trifluoromethoxy)benzylidene)hydrazinyl)-1,3,5-triazin-2-amine]", "mortality at 100 µg/cm2": "76 to 100"}, {"smiles": "Fc1cccc(Cl)c1-c1nc(NN=Cc2ccc(OC(F)(F)C(F)F)cc2)nc(Nc2ccc(Cl)nc2)n1", "note": "[Example 12, 4-(2-chloro-6-fluorophenyl)-N-(6-chloropyridin-3-yl)-6-(2-(4-(1,1,2,2-tetrafluoroethoxy)benzylidene)hydrazinyl)-1,3,5-triazin-2-amine]", "mortality at 100 µg/cm2": "76 to 100"}, {"smiles": "Fc1cccc(Cl)c1-c1nc(NCc2ccc(Cl)nc2)nc(NN=Cc2ccc(OC(F)(F)F)cc2)n1", "note": "[Example 22, 4-(2-chloro-6-fluorophenyl)-N-((6-chloropyridin-3-yl)methyl)-6-(2-(4-(trifluoromethoxy)benzylidene)hydrazinyl)-1,3,5-triazin-2-amine]", "mortality at 100 µg/cm2": "76 to 100"}, {"smiles": "Fc1cccc(F)c1-c1nc(NN=Cc2ccc(OC(F)(F)F)cc2)nc(Nc2ccc(Cl)cc2)n1", "note": "[Example 1, N-(4-chlorophenyl)-4-(2,6-difluorophenyl)-6-(2-(4-(trifluoromethoxy)benzylidene)hydrazinyl)-1,3,5-triazin-2-amine]", "mortality at 100 µg/cm2": "76 to 100"}, {"smiles": "CCc1ccc(C=NNc2nc(Nc3ccc(Cl)cc3)nc(-c3c(F)cccc3Cl)n2)cc1", "note": "[Example 17, 4-(2-chloro-6-fluorophenyl)-N-(4-chlorophenyl)-6-(2-(4-ethylbenzylidene)hydrazinyl)-1,3,5-triazin-2-amine]", "mortality at 100 µg/cm2": "76 to 100"}, {"smiles": "Cc1ccc(Nc2nc(NN=Cc3ccc(OC(F)(F)F)cc3)nc(-c3c(F)cccc3Cl)n2)cc1", "note": "[Example 23, 4-(2-chloro-6-fluorophenyl)-N-(p-tolyl)-6-(2-(4-(trifluoromethoxy)benzylidene)hydrazinyl)-1,3,5-triazin-2-amine]", "mortality at 100 µg/cm2": "76 to 100"}, {"smiles": "Fc1cccc(Cl)c1-c1nc(NN=Cc2ccc(OC(F)(F)F)cc2)nc(Nc2cc(Cl)cc(Cl)c2)n1", "note": "[Example 39, 4-(2-chloro-6-fluorophenyl)-N-(3,5-dichlorophenyl)-6-(2-(4-(trifluoromethoxy)benzylidene)hydrazinyl)-1,3,5-triazin-2-amine]", "mortality at 100 µg/cm2": "76 to 100"}, {"smiles": "Fc1cc(C=NNc2nc(Nc3ccc(Cl)nc3)nc(-c3c(F)cccc3Cl)n2)ccc1C(F)(F)F", "note": "[Example 55, 4-(2-chloro-6-fluorophenyl)-N-(6-chloropyridin-3-yl)-6-(2-(3-fluoro-4-(trifluoromethyl)benzylidene)hydrazinyl)-1,3,5-triazin-2-amine]", "mortality at 100 µg/cm2": "76 to 100"}, {"smiles": "Fc1cccc(Cl)c1-c1nc(NN=Cc2ccc(OC(F)(F)F)cc2)nc(Nc2ccnc(Cl)c2)n1", "note": "[Example 40, 4-(2-chloro-6-fluorophenyl)-N-(2-chloropyridin-4-yl)-6-(2-(4-(trifluoromethoxy)benzylidene)hydrazinyl)-1,3,5-triazin-2-amine]", "mortality at 100 µg/cm2": "26 to 50"}, {"smiles": "NCCNc1nc(NN=Cc2ccc(OC(F)(F)F)cc2)nc(-c2c(F)cccc2Cl)n1", "note": "[Example 28, N1-(4-(2-chloro-6-fluorophenyl)-6-(2-(4-(trifluoromethoxy)benzylidene)hydrazinyl)-1,3,5-triazin-2-yl)ethane-1,2-diamine]", "mortality at 100 µg/cm2": "0 to 25"}, {"smiles": "Fc1cccc(Cl)c1-c1nc(NCC2CCOC2)nc(NN=Cc2ccc(OC(F)(F)F)cc2)n1", "note": "(centres unmarked) [Example 26, 4-(2-chloro-6-fluorophenyl)-N-((tetrahydrofuran-3-yl)methyl)-6-(2-(4-(trifluoromethoxy)benzylidene)hydrazinyl)-1,3,5-triazin-2-amine]", "mortality at 100 µg/cm2": "0 to 25"}, {"smiles": "CCCC=NNc1nc(Nc2ccc(Cl)cc2)nc(-c2c(F)cccc2Cl)n1", "note": "[Example 19, 4-(2-butylidenehydrazinyl)-6-(2-chloro-6-fluorophenyl)-N-(4-chlorophenyl)-1,3,5-triazin-2-amine]", "mortality at 100 µg/cm2": "76 to 100"}, {"smiles": "COc1ccc(C=NNc2nc(Nc3ccc(Cl)nc3)nc(-c3c(F)cccc3Cl)n2)cc1", "note": "[Example 54, 4-(2-chloro-6-fluorophenyl)-N-(6-chloropyridin-3-yl)-6-(2-(4-methoxybenzylidene)hydrazinyl)-1,3,5-triazin-2-amine]", "mortality at 100 µg/cm2": "76 to 100"}]}]}
